Results published in US20030207856A1, “Medical devices and compositions for delivering anti-proliferatives to anatomical sites at risk for restenosis” (priority 2002, published 2003).

Tested on: Human coronary smooth muscles cells (HCASMC)
Assay: Human coronary artery smooth muscle cell proliferation inhibition
Type: cell-based
Conditions: day four, both cell culture schemes, FIGS. 6 and 7
Procedure: Inhibition of Human Coronary Artery Smooth Muscle Cells by Geldanamycin
1. Human coronary smooth muscles cells (HCASMC) were obtained from Clonetics, a division of Cambrex, Inc.
2. HCASMA basal media, supplied by Clonetics and supplemented with fetal bovine serum, insulin, hFGF-B (human fibroblast growth factor) hEGF (human epidermal growth factor).
Human coronary smooth muscles cells (HCASMC) were seeded in 24 well polystyrene tissue culture plates at a density of 5×10^3 cells per well. Two different feeding and reading strategies were employed. Strategy 1: Cells were plated in cell culture media containing various concentrations of geldanamycin (see Table 1) and incubated at 37° C. for 48 hours. After the initial 48 hour incubation, the geldanamycin containing plating media was changed and the cells were fed with drug free media and incubated for an additional 48 hours and then read.
Strategy 2: Cells were plated in cell culture media containing various concentrations of geldanamycin (see Table 1) and incubated at 37° C. for 48 hours. After the initial 48 hours incubation, the geldanamycin-containing plating media was changed and the cells were fed with geldanamycin-containing media and incubated for an additional 48 hours and then read. […]
On day four cultures were analyzed to determine the proliferation inhibition effects of geldanamycin. […]

In the case of `COC1=C2C[C@@H](C)C[C@H](OC)[C@H](O)[C@@H](C)/C=C(\C)[C@H](OC(N)=O)[C@@H](OC)/C=C\C=C(/C)C(=O)NC(=CC1=O)C2=O` [geldanamycin], the “HCASMC inhibition (percent inhibition of proliferation)” value (geldanamycin 0.9 nM) is reported as over 50% and the “HCASMC inhibition (percent inhibition of proliferation)” value (geldanamycin 50 nM) is reported as about 100%.
